Tested on: MCF7 complex spheroid growth, % test/control
Experiment: Anticancer human tumor MCF7 cell line growth inhibition [Asc];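 note: spheroids exposed to compounds for 7 days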;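 for viability, T/C: 100% = DMSO vehicle control wells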
Settings: for IC50: curve of first compound; for viability, T/C: stronger effect = lower value
Procedure, shortened: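 Tumor cells were grown as complex spheroids with human endothelial cells (HUVEC) and human mesenchymal stem cells as stroma. Agents were tested alone and in combination, in half-log steps down from the clinical Cmax, or from 10 microM where Cmax was unknown.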

For C#Cc1c(F)ccc2cc(O)cc(-c3ncc4c(N5CC6CCC(C5)N6)nc(OCC56CCCN5CC(F)C6)nc4c3F)c12 (stereo unspecified) + CNC(C)C(=O)NC1CN(S(=O)(=O)c2cccc(S(=O)(=O)N3CCC4CCC(C(=O)NC(c5ccccc5)c5ccccc5)N4C(=O)C(NC(=O)C(C)NC)C3)c2)CCC2CCC(C(=O)NC(c3ccccc3)c3ccccc3)N2C1=O, the IC50 (second compound 0.00316 µM) was under 31.6 nM, the IC50 (second compound 0.01 µM) was under 31.6 nM and the IC50 (second compound 0.0316 µM) was under 31.6 nM. For the same compound, the IC50 (second compound 0.1 µM) was under 31.6 nM, the IC50 (second compound 0.316 µM) was under 31.6 nM and the IC50 (second compound 1 µM) was under 31.6 nM. It also gave a viability, T/C (second compound 0.00316 µM, first compound 0.0316 µM) of 41.9%, a viability, T/C (second compound 0.00316 µM, first compound 0.1 µM) of 44.3% and a viability, T/C (second compound 0.00316 µM, first compound 0.316 µM) of 16.3%. For the same compound, the viability, T/C (second compound 0.00316 µM, first compound 1 µM) was 18.9%, the viability, T/C (second compound 0.00316 µM, first compound 3.16 µM) was 11.3% and the viability, T/C (second compound 0.00316 µM, first compound 10 µM) was 2.37%. For the same compound, the viability, T/C (second compound 0.01 µM, first compound 0.0316 µM) was 19%, the viability, T/C (second compound 0.01 µM, first compound 0.1 µM) was 12.6% and the viability, T/C (second compound 0.01 µM, first compound 0.316 µM) was 12.2%. The viability, T/C (second compound 0.01 µM, first compound 1 µM) was 11.8%, the viability, T/C (second compound 0.01 µM, first compound 3.16 µM) was 9.39% and the viability, T/C (second compound 0.01 µM, first compound 10 µM) was 4.11%. For the same compound, the viability, T/C (second compound 0.0316 µM, first compound 0.0316 µM) was 11.6%, the viability, T/C (second compound 0.0316 µM, first compound 0.1 µM) was 12.4% and the viability, T/C (second compound 0.0316 µM, first compound 0.316 µM) was 10.9%. For the same compound, the viability, T/C (second compound 0.0316 µM, first compound 1 µM) was 11.4%, the viability, T/C (second compound 0.0316 µM, first compound 3.16 µM) was 9.52% and the viability, T/C (second compound 0.0316 µM, first compound 10 µM) was 3.7%. For the same compound, the viability, T/C (second compound 0.1 µM, first compound 0.0316 µM) was 12.5%, the viability, T/C (second compound 0.1 µM, first compound 0.1 µM) was 10.4% and the viability, T/C (second compound 0.1 µM, first compound 0.316 µM) was 11.9%. It also gave a viability, T/C (second compound 0.1 µM, first compound 1 µM) of 11.2%, a viability, T/C (second compound 0.1 µM, first compound 3.16 µM) of 11.4% and a viability, T/C (second compound 0.1 µM, first compound 10 µM) of 3.67%. It also gave a viability, T/C (second compound 0.316 µM, first compound 0.0316 µM) of 12.8%, a viability, T/C (second compound 0.316 µM, first compound 0.1 µM) of 12.9% and a viability, T/C (second compound 0.316 µM, first compound 0.316 µM) of 12.2%. For the same compound, the viability, T/C (second compound 0.316 µM, first compound 1 µM) was 10.8%, the viability, T/C (second compound 0.316 µM, first compound 3.16 µM) was 11.4% and the viability, T/C (second compound 0.316 µM, first compound 10 µM) was 2.21%. For the same compound, the viability, T/C (second compound 1 µM, first compound 0.0316 µM) was 13.9%, the viability, T/C (second compound 1 µM, first compound 0.1 µM) was 12.2% and the viability, T/C (second compound 1 µM, first compound 0.316 µM) was 13%. It also gave a viability, T/C (second compound 1 µM, first compound 1 µM) of 10.6%, a viability, T/C (second compound 1 µM, first compound 3.16 µM) of 8.64% and a viability, T/C (second compound 1 µM, first compound 10 µM) of 1.87%.
Work on C=CC(=O)N1CCN(c2nc(=O)n(-c3c(C)ccnc3C(C)C)c3nc(-c4c(O)cccc4F)c(F)cc23)C(C)C1 (stereo unspecified) + CCN1C(C(=O)NC23CCC(C(=O)O)(CC2)CC3)C(c2cccc(Cl)c2F)C2(C(=O)Nc3cc(Cl)ccc32)C12CCCCC2 yielded an IC50 (second compound 0.00949 µM) of over 10000 nM, an IC50 (second compound 0.03 µM) of over 10000 nM and an IC50 (second compound 0.0949 µM) of 585 nM. The IC50 (second compound 0.3 µM) was under 31.6 nM, the IC50 (second compound 0.949 µM) was under 31.6 nM and the IC50 (second compound 3 µM) was under 31.6 nM. The viability, T/C (second compound 0.00949 µM, first compound 0.0316 µM) was 109%, the viability, T/C (second compound 0.00949 µM, first compound 0.1 µM) was 104% and the viability, T/C (second compound 0.00949 µM, first compound 0.316 µM) was 113%. It also gave a viability, T/C (second compound 0.00949 µM, first compound 1 µM) of 107%, a viability, T/C (second compound 0.00949 µM, first compound 3.16 µM) of 113% and a viability, T/C (second compound 0.00949 µM, first compound 10 µM) of 91.1%. The viability, T/C (second compound 0.03 µM, first compound 0.0316 µM) was 96.1%, the viability, T/C (second compound 0.03 µM, first compound 0.1 µM) was 93.7% and the viability, T/C (second compound 0.03 µM, first compound 0.316 µM) was 83.3%. It also gave a viability, T/C (second compound 0.03 µM, first compound 1 µM) of 68.2%, a viability, T/C (second compound 0.03 µM, first compound 3.16 µM) of 82.9% and a viability, T/C (second compound 0.03 µM, first compound 10 µM) of 59.8%. It also gave a viability, T/C (second compound 0.0949 µM, first compound 0.0316 µM) of 53.9%, a viability, T/C (second compound 0.0949 µM, first compound 0.1 µM) of 56.4% and a viability, T/C (second compound 0.0949 µM, first compound 0.316 µM) of 55.3%. The viability, T/C (second compound 0.0949 µM, first compound 1 µM) was 42.5%, the viability, T/C (second compound 0.0949 µM, first compound 3.16 µM) was 45.7% and the viability, T/C (second compound 0.0949 µM, first compound 10 µM) was 35.5%. It also gave a viability, T/C (second compound 0.3 µM, first compound 0.0316 µM) of 34.8%, a viability, T/C (second compound 0.3 µM, first compound 0.1 µM) of 33.5% and a viability, T/C (second compound 0.3 µM, first compound 0.316 µM) of 35.6%. The viability, T/C (second compound 0.3 µM, first compound 1 µM) was 33%, the viability, T/C (second compound 0.3 µM, first compound 3.16 µM) was 32% and the viability, T/C (second compound 0.3 µM, first compound 10 µM) was 32.6%. It also gave a viability, T/C (second compound 0.949 µM, first compound 0.0316 µM) of 24.5%, a viability, T/C (second compound 0.949 µM, first compound 0.1 µM) of 23.1% and a viability, T/C (second compound 0.949 µM, first compound 0.316 µM) of 20.7%. It also gave a viability, T/C (second compound 0.949 µM, first compound 1 µM) of 25.2%, a viability, T/C (second compound 0.949 µM, first compound 3.16 µM) of 32.1% and a viability, T/C (second compound 0.949 µM, first compound 10 µM) of 21.4%. For the same compound, the viability, T/C (second compound 3 µM, first compound 0.0316 µM) was 16.6%, the viability, T/C (second compound 3 µM, first compound 0.1 µM) was 17.1% and the viability, T/C (second compound 3 µM, first compound 0.316 µM) was 19.1%. The viability, T/C (second compound 3 µM, first compound 1 µM) was 18.3%, the viability, T/C (second compound 3 µM, first compound 3.16 µM) was 22.1% and the viability, T/C (second compound 3 µM, first compound 10 µM) was 24.2%.
In the case of Cc1nc(N2CCC3(CC2)COC(C)C3N)c(CO)nc1Sc1ccnc(N)c1Cl (stereo unspecified) + Cc1c(S(C)(=O)=O)c(-c2cc(F)cc(N3CCN(c4ccc(NS(=O)(=O)c5ccc(NC(CCN6CCC(C(=O)OCCCP(=O)(O)O)CC6)CSc6ccccc6)c(S(=O)(=O)C(F)(F)F)c5)cc4)CC3)c2)c(-c2ccc(Cl)cc2)n1C(C)C, the IC50 (second compound 0.0316 µM) is reported as 736 nM, the IC50 (second compound 0.1 µM) is reported as 787 nM and the IC50 (second compound 0.316 µM) is reported as 491 nM. For the same compound, the IC50 (second compound 1 µM) was 534 nM, the IC50 (second compound 3.16 µM) was 668 nM and the IC50 (second compound 10 µM) was 789 nM. The viability, T/C (second compound 0.0316 µM, first compound 0.00949 µM) was 91.3%, the viability, T/C (second compound 0.0316 µM, first compound 0.03 µM) was 92.1% and the viability, T/C (second compound 0.0316 µM, first compound 0.0949 µM) was 90%. For the same compound, the viability, T/C (second compound 0.0316 µM, first compound 0.3 µM) was 88.8%, the viability, T/C (second compound 0.0316 µM, first compound 0.949 µM) was 39.1% and the viability, T/C (second compound 0.0316 µM, first compound 3 µM) was 14.7%. The viability, T/C (second compound 0.1 µM, first compound 0.00949 µM) was 90.6%, the viability, T/C (second compound 0.1 µM, first compound 0.03 µM) was 79.7% and the viability, T/C (second compound 0.1 µM, first compound 0.0949 µM) was 73.7%. For the same compound, the viability, T/C (second compound 0.1 µM, first compound 0.3 µM) was 80%, the viability, T/C (second compound 0.1 µM, first compound 0.949 µM) was 44.2% and the viability, T/C (second compound 0.1 µM, first compound 3 µM) was 14.9%. For the same compound, the viability, T/C (second compound 0.316 µM, first compound 0.00949 µM) was 98.3%, the viability, T/C (second compound 0.316 µM, first compound 0.03 µM) was 84.2% and the viability, T/C (second compound 0.316 µM, first compound 0.0949 µM) was 75.2%. The viability, T/C (second compound 0.316 µM, first compound 0.3 µM) was 72.8%, the viability, T/C (second compound 0.316 µM, first compound 0.949 µM) was 19.7% and the viability, T/C (second compound 0.316 µM, first compound 3 µM) was 15.5%. For the same compound, the viability, T/C (second compound 1 µM, first compound 0.00949 µM) was 80.5%, the viability, T/C (second compound 1 µM, first compound 0.03 µM) was 84.6% and the viability, T/C (second compound 1 µM, first compound 0.0949 µM) was 85.7%. It also gave a viability, T/C (second compound 1 µM, first compound 0.3 µM) of 81.2%, a viability, T/C (second compound 1 µM, first compound 0.949 µM) of 18.9% and a viability, T/C (second compound 1 µM, first compound 3 µM) of 15.3%. It also gave a viability, T/C (second compound 3.16 µM, first compound 0.00949 µM) of 98.3%, a viability, T/C (second compound 3.16 µM, first compound 0.03 µM) of 88.4% and a viability, T/C (second compound 3.16 µM, first compound 0.0949 µM) of 89.5%. It also gave a viability, T/C (second compound 3.16 µM, first compound 0.3 µM) of 80.6%, a viability, T/C (second compound 3.16 µM, first compound 0.949 µM) of 36.6% and a viability, T/C (second compound 3.16 µM, first compound 3 µM) of 20.5%. It also gave a viability, T/C (second compound 10 µM, first compound 0.00949 µM) of 247%, a viability, T/C (second compound 10 µM, first compound 0.03 µM) of 221% and a viability, T/C (second compound 10 µM, first compound 0.0949 µM) of 202%. For the same compound, the viability, T/C (second compound 10 µM, first compound 0.3 µM) was 176%, the viability, T/C (second compound 10 µM, first compound 0.949 µM) was 26% and the viability, T/C (second compound 10 µM, first compound 3 µM) was 26%.

Reference: PubChem BioAssay AID1963445 (Molecular Pharmacology Branch, DTP, NCI, 2024)
